Source: publication PMC7751394, “Succinic acid inhibits the activity of cytochrome P450 (CYP450) enzymes” (Pharmaceutical Biology, 2020)

What was measured:
CYP3A4 [1] = target: T1, CYP3A4 (Homo sapiens, UniProt P08684)
Method: (§1) To determine whether succinic acid could inhibit the activity of CYP3A4, 2D6, and 2C9 in a time-dependent manner, succinic acid (20 μM) was pre-incubated with HLMs (1 mg/mL) in the presence of an NADPH-generating system for 30 min at 37 °C. After incubation, an aliquot (20 μL) was transferred to another incubation tube (final volume 200 μL) containing an NADPH-generating system and probe substrates whose final concentrations were approximate to Km. Then, further incubations were performed to measure the residual activity. After being incubated for 0, 5, 10, 15, and 30 min, the reactions were terminated by adding a 100 μL acetonitrile internal standard mix and then placed on ice; the corresponding metabolites were determined by HPLC.
To determine the KI and Kinact values for the inactivation of CYP3A4, the incubations were conducted using higher probe substrate concentrations (approximately 4-fold Km values) and various concentrations of succinic acid (0–50 μM) after different preincubation times (0–30 min), with a two-step incubation scheme, as described above.

CYP3A4 [2] = target: T1, CYP3A4; test: biochemical
Method: (§2) All incubations were performed in triplicate, and the mean values were utilized. The typical incubation systems contained 100 mM potassium phosphate buffer (pH 7.4), NADPH generating system (1 mM NADP^+, 10 mM glucose-6-phosphate, 1 U/mL of glucose-6-phosphate dehydrogenase, and 4 mM MgCl2), the appropriate concentration of HLMs, a corresponding probe substrate and hispidulin (or positive inhibitor for different probe reactions) in a final volume of 200 μL.
(§3) The concentration of succinic acid was 100 μM, and the positive inhibitor concentrations were as follows: 10 μM furafylline for CYP1A2, 1 μM ketoconazole for CYP3A4, 10 μM tranylcypromine for CYP2A6, 50 μM clomethiazole for CYP2E1, 10 μM quinidine for CYP2D6, 10 μM sulfaphenazole for CYP2C9, 50 μM tranylcypromine for CYP2C19, 5 μM montelukast for CYP2C8. Probe substrates, positive inhibitors (except for dextromethorphan and quinidine, which were dissolved in water), and succinic acid were dissolved in methanol, with a final concentration of 1% (v/v), and 1% neat methanol was added to the incubations without inhibitor. There was a 3 min preincubation period (at 37 °C) before the reaction was initiated by adding an NADPH-generating system. The reaction was terminated by adding a 100 μL acetonitrile (10% trichloroacetic acid for CYP2A6) internal standard mix, and the solution was placed on ice. The mixture was centrifuged at 12,000 rpm for 10 min, and an aliquot (50 μL) of supernatant was transferred for HPLC analysis. The instrument used in this study was Agilent 1260 series instrument with DAD and FLD detector, and the quantitative assay for the corresponding metabolites was performed as previously reported (Lang et al. [2017]; Zhang et al. [2017]).
(§4) Succinic acid (100 μM) was used to initially screen for its direct inhibitory effects towards different human CYP isoforms. […] Ki values were obtained by incubating various concentrations of different probe substrates (20–100 μM testosterone, 10–50 μM dextromethorphan, 5–20 μM diclofenac) in the presence of 0–50 μM succinic acid.
(§5) The enzyme kinetic parameters for the probe reaction were estimated from the best fit line, using least-squares linear regression of the inverse substrate concentration versus the inverse velocity (Lineweaver-Burk plots), and the mean values were used to calculate Vmax and Km. Inhibition data from the experiments that were conducted using multiple compound concentrations were represented by Dixon plots, and inhibition constant (Ki) values were calculated using non-linear regression according to the following equation: v=(VmaxS)/(Km(1+I/Ki)+S), where I is the concentration of the compound, Ki is the inhibition constant, S is the concentration of the substrate, and Km is the substrate concentration at half the maximum velocity (Vmax) of the reaction. The mechanism of the inhibition was inspected using the Lineweaver-Burk plots and the enzyme inhibition models. The data comparison was performed using Student’s t-test and performed using IBM SPSS statistics 20 (SPSS Inc.).

CYP2D6 [3] = target: T2, CYP2D6 (Homo sapiens, UniProt P10635); test: biochemical
Method: as §2, §3, §4, §5

CYP2C9 [4] = target: T3, CYP2C9 (Homo sapiens, UniProt P11712); test: biochemical
Method: as §2, §3, §4, §5

CYP2D6 [5] = target: T2, CYP2D6; settings: succinic acid 20 μM, 0–30 min
Method: as §1

CYP2C9 [6] = target: T3, CYP2C9; settings: succinic acid 20 μM, 0–30 min
Method: as §1

T1 sequence (P08684 whole entry): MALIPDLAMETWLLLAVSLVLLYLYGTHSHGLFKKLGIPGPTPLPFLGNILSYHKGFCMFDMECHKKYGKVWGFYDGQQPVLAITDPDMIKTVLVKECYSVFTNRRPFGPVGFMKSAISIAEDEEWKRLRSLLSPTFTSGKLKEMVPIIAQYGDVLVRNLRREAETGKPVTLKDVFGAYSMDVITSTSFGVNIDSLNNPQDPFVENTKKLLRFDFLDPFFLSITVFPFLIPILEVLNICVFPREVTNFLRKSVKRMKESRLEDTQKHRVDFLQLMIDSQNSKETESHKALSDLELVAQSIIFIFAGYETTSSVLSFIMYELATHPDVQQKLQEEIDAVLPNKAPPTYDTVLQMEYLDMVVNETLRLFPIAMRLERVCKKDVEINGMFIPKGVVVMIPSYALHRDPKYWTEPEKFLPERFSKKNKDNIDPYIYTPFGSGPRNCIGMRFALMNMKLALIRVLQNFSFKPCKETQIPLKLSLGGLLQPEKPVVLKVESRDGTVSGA
T2 sequence (P10635 whole entry): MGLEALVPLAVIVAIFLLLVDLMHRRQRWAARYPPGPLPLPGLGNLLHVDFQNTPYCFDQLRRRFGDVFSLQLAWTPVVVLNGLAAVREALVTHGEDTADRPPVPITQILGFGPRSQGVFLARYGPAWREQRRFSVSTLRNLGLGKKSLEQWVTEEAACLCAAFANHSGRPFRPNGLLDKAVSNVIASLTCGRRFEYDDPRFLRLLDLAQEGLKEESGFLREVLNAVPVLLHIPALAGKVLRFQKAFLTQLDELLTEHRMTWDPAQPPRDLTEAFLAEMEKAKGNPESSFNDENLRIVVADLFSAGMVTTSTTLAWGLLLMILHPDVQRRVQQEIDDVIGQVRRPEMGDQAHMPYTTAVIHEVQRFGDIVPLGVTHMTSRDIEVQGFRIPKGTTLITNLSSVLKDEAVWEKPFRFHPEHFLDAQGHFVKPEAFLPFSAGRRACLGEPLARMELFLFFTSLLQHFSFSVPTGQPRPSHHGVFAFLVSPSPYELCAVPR
T3 sequence (P11712 whole entry): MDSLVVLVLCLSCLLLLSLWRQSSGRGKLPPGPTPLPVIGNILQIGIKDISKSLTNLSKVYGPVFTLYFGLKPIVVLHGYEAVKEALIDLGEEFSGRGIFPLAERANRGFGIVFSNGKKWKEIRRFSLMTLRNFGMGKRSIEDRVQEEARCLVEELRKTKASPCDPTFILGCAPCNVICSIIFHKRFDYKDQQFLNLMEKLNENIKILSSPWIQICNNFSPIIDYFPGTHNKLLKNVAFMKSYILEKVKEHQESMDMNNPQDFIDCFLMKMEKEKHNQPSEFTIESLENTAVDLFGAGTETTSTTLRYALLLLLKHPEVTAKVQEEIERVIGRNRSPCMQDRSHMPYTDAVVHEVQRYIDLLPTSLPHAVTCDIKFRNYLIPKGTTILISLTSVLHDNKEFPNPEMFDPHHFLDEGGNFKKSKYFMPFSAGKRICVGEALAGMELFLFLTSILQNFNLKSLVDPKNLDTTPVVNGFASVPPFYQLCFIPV

In the case of O=C(O)CCC(=O)O [succinic acid, Succinic acid], the “time dependence of CYP3A4 inhibition” value (CYP3A4 [1]; succinic acid 20 μM, 0–30 min) is reported as “time-dependent”, the “activity of CYP3A4 (decreased to) after incubating” value (CYP3A4 [1]; succinic acid 20 μM, 30 min incubation, HLMs with NADPH) is reported as 26.65% and the “CYP3A4 inactivated by succinic acid” value (CYP3A4 [1]; suggested from Kinact) is reported as “about 5.1%”. For the same molecule, the IC50 (CYP3A4 [2]) was 12.8 µM, the Ki (CYP3A4 [2]) was 6.18 µM and the “inhibition model CYP3A4 (Lineweaver-Burk plots)” value (CYP3A4 [2]; pooled HLM) was “non-competitive”. For the same molecule, the IC50 (CYP2D6 [3]) was 14.5 µM, the Ki (CYP2D6 [3]) was 7.4 µM and the “inhibition model CYP2D6 (Lineweaver-Burk plots)” value (CYP2D6 [3]; microsomes) was “competitive”. The IC50 (CYP2C9 [4]) was 19.6 µM, the Ki (CYP2C9 [4]) was 9.48 µM and the “inhibition model CYP2C9 (Lineweaver-Burk plots)” value (CYP2C9 [4]; pooled HLM) was “competitive”. For the same molecule, the “effect of incubation time on CYP2D6 activity” value (CYP2D6 [5]) was “not affected by the incubation time” and the “effect of incubation time on CYP2C9 activity” value (CYP2C9 [6]) was “not affected by the incubation time”.
